Measurements: patent US20220323406A1, “METHODS AND COMPOSITIONS FOR DIFFERENTIATING STEM CELLS” (Massachusetts Institute of Technology, priority 2019, published 2022)
Structures can show the parent of a compound that is named as a salt.

Key:
[1] = test system: ENR+CD organoids (ISC to Paneth cell differentiation); test: Primary screen: basal (non-stimulated) lysozyme secretion LYZ.NS, 2.5-D 384-well ENR+CD organoid differentiation; type: cell-based, mouse
Excerpt: (§1) High-throughput screening.

[2] = test system: ENR+CD organoids (ISC to Paneth cell differentiation); test: Primary screen: CCh-stimulated lysozyme secretion LYZ.S, 2.5-D 384-well ENR+CD organoid differentiation; type: cell-based, mouse; conditions: primary screen
Excerpt: as §1

ENR+CD organoids = test: Primary screen: ATP (CellTiter-Glo 3D, CTG) cell number/viability, 2.5-D 384-well ENR+CD organoids;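 note: compounds given at plating and again on day 3 over a 6-day differentiation from ENR+CV stem-cell-enriched precursors, ATP measured on day 6, plate median as control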
[3] = primary screen, standard z score, dose 0.08 uM
[4] = primary screen, standard z score, dose 0.40 uM
[5] = primary screen, standard z score, dose 2.00 uM
[6] = primary screen, standard z score, dose 10.00 uM
[7] = primary screen, dose 0.08 uM, standard z score
[8] = primary screen, dose 0.40 uM, standard z score
[9] = primary screen, dose 2.00 uM, standard z score
[10] = primary screen, dose 10.00 uM, standard z score
[11] = primary screen; dose 0.08 uM; FC vs plate median
[12] = primary screen; dose 0.40 uM; FC vs plate median
[13] = primary screen; dose 2.00 uM; FC vs plate median
[14] = primary screen; dose 10.00 uM; FC vs plate median
[15] = primary screen, dose 0.08 uM, FC relative to plate median
[16] = primary screen, dose 0.40 uM, FC relative to plate median
[17] = primary screen, dose 2.00 uM, FC relative to plate median
[18] = primary screen, dose 10.00 uM, FC relative to plate median

SMILES	Dose.FC.LYZ.NS ([1]; primary screen, dose 0.08 uM) [log2 fold change]	Dose.FC.LYZ.NS ([1]; primary screen, dose 0.40 uM) [log2 fold change]	Dose.FC.LYZ.NS ([1]; primary screen, dose 2.00 uM) [log2 fold change]	Dose.FC.LYZ.NS ([1]; primary screen, dose 10.00 uM) [log2 fold change]	Z.LYZ.NS [1, 3]	Z.LYZ.NS [1, 4]	Z.LYZ.NS [1, 5]	Z.LYZ.NS [1, 6]	Dose.FC.LYZ.S ([2]; dose 0.08 uM) [log2 fold change]	Dose.FC.LYZ.S ([2]; dose 0.40 uM) [log2 fold change]	Dose.FC.LYZ.S ([2]; dose 2.00 uM) [log2 fold change]	Dose.FC.LYZ.S ([2]; dose 10.00 uM) [log2 fold change]	Dose.FC.CTG (ENR+CD organoids; primary screen, dose 0.08 uM) [log2 fold change]	Dose.FC.CTG (ENR+CD organoids; primary screen, dose 0.40 uM) [log2 fold change]	Dose.FC.CTG (ENR+CD organoids; primary screen, dose 2.00 uM) [log2 fold change]	Dose.FC.CTG (ENR+CD organoids; primary screen, dose 10.00 uM) [log2 fold change]	Z.CTG (ENR+CD organoids; [3])	Z.CTG (ENR+CD organoids; [4])	Z.CTG (ENR+CD organoids; [5])	Z.CTG (ENR+CD organoids; [6])	also measured
C[C@H](N[C@@H](CCc1ccccc1)C(=O)O)C(=O)N1CCC[C@H]1C(=O)O.O.O [Enalaprilat Dihydrate]	0.003	−0.003	−0.022	−0.157	0.027	−0.030	−0.195	−1.364	−0.001	0.111	−0.095	−0.281	−0.190	−0.124	−0.331	−0.979	−0.454	−0.296	−0.791	−2.338	–
O=[N+]([O-])C=Cc1ccc2c(c1)OCO2	–	–	–	–	–	–	–	–	–	–	–	–	–	–	–	–	–	–	–	–	Z.LYZ.NS [1, 7]: 0.499; Z.LYZ.NS [1, 8]: −0.088; Z.LYZ.NS [1, 9]: 0.347; Z.LYZ.NS [1, 10]: −1.307; Dose.FC.LYZ.NS [1, 11]: 0.057 log2 fold change; Dose.FC.LYZ.NS [1, 12]: −0.010 log2 fold change; Dose.FC.LYZ.NS [1, 13]: 0.040 log2 fold change; Dose.FC.LYZ.NS [1, 14]: −0.150 log2 fold change; Dose.FC.LYZ.S ([2]; dose 0.08 uM, FC vs plate median): 0.076 log2 fold change; Dose.FC.LYZ.S ([2]; dose 0.40 uM, FC vs plate median): 0.100 log2 fold change; Dose.FC.LYZ.S ([2]; dose 2.00 uM, FC vs plate median): 0.019 log2 fold change; Dose.FC.LYZ.S ([2]; dose 10.00 uM, FC vs plate median): −0.179 log2 fold change; Z.CTG (ENR+CD organoids; [7]): −0.037; Z.CTG (ENR+CD organoids; [8]): 0.146; Z.CTG (ENR+CD organoids; [9]): 0.148; Z.CTG (ENR+CD organoids; [10]): −0.469; Dose.FC.CTG (ENR+CD organoids; [11]): −0.016 log2 fold change; Dose.FC.CTG (ENR+CD organoids; [12]): 0.061 log2 fold change; Dose.FC.CTG (ENR+CD organoids; [13]): 0.062 log2 fold change; Dose.FC.CTG (ENR+CD organoids; [14]): −0.197 log2 fold change
CCOC(=O)c1ccc(NC2CCCCC2)c(N)c1 [Ferrostatin-1 (Fer-1)]	0.108	0.116	0.070	0.013	0.944	1.012	0.610	0.116	0.120	0.207	0.092	−0.018	0.312	0.453	0.215	−0.046	0.745	1.082	0.514	−0.109	–
CC(C)NCC(O)COc1ccc(COCCOC(C)C)cc1 (stereo not shown) [Bisoprolol fumarate]	0.085	0.075	0.075	0.003	–	–	–	–	0.086	0.129	0.074	0.015	−0.104	−0.057	−0.020	0.058	–	–	–	–	Z.LYZ.NS (standard z score) ([1]; primary screen, dose 0.08 uM): 0.739; Z.LYZ.NS (standard z score) ([1]; primary screen, dose 0.40 uM): 0.649; Z.LYZ.NS (standard z score) ([1]; primary screen, dose 2.00 uM): 0.656; Z.LYZ.NS (standard z score) ([1]; primary screen, dose 10.00 uM): 0.027
COc1ccc(C(=O)N2CCCC2=O)cc1 [Aniracetam]	0.089	0.056	0.032	0.012	–	–	–	–	0.043	0.148	0.005	−0.028	−0.088	0.112	0.054	0.019	–	–	–	–	Z.LYZ.NS (standard z score) ([1]; primary screen, dose 0.08 uM): 0.774; Z.LYZ.NS (standard z score) ([1]; primary screen, dose 0.40 uM): 0.486; Z.LYZ.NS (standard z score) ([1]; primary screen, dose 2.00 uM): 0.277; Z.LYZ.NS (standard z score) ([1]; primary screen, dose 10.00 uM): 0.105
CC(C)(C)c1cc(NC(=O)Nc2ccc(-c3cn4c(n3)sc3cc(OCCN5CCOCC5)ccc34)cc2)no1 [Quizartinib (AC220)]	–	–	–	–	–	–	–	–	–	–	–	–	–	–	–	–	–	–	–	–	Dose.FC.LYZ.NS [1, 15]: 0.096 log2 fold change; Z.LYZ.NS [1, 7]: 0.836; Dose.FC.LYZ.NS [1, 16]: 0.039 log2 fold change; Z.LYZ.NS [1, 8]: 0.341; Dose.FC.LYZ.NS [1, 17]: −0.052 log2 fold change; Z.LYZ.NS [1, 9]: −0.452; Dose.FC.LYZ.NS [1, 18]: −0.173 log2 fold change; Z.LYZ.NS [1, 10]: −1.505; Dose.FC.LYZ.S ([2]; dose 0.08 uM, FC relative to plate median): 0.154 log2 fold change; Dose.FC.LYZ.S ([2]; dose 0.40 uM, FC relative to plate median): 0.083 log2 fold change; Dose.FC.LYZ.S ([2]; dose 2.00 uM, FC relative to plate median): −0.077 log2 fold change; Dose.FC.LYZ.S ([2]; dose 10.00 uM, FC relative to plate median): −0.200 log2 fold change; Dose.FC.CTG (ENR+CD organoids; [15]): 0.351 log2 fold change; Z.CTG (ENR+CD organoids; [7]): 0.838; Dose.FC.CTG (ENR+CD organoids; [16]): 0.149 log2 fold change; Z.CTG (ENR+CD organoids; [8]): 0.355; Dose.FC.CTG (ENR+CD organoids; [17]): −0.352 log2 fold change; Z.CTG (ENR+CD organoids; [9]): −0.841; Dose.FC.CTG (ENR+CD organoids; [18]): −0.644 log2 fold change; Z.CTG (ENR+CD organoids; [10]): −1.539
